≈ marks a conversion by molar mass, not a printed value.
Key:
[1] = system: HTLV-IIIb cell free virus; assay: Reverse transcriptase assay of HIV infectivity, cell free virus on target cells, 10 day incubation; format: cell-based, HIV-1; settings: 1/2 dilutions from 2.5 mM, result in words
Experimental: Figure 2 illustrates the effects of cyclodextrin and cyclodextrin derivatives on HIV infectivity as determined by reverse transcriptase activity. Samples assayed are (A) untreated control cells, (B) β-cyclodextrin unsubstituted ring, (C) partially sulfated β-cyclodextrin ring, (D) propylated β-cyclodextrin ring, (E) sulfated β-cyclodextrin ring, and (F) methylated β-cyclodextrin ring. Numbers indicate 1/2 dilutions of test compounds with 1 = 2.5 mM concentration of compound.
Virus infected cells were pelleted by centrifugation and 50 µl of culture suprenatant was collected from each well for assay. Culture supernatant (25 µl) was plated in 96 well round bottomed plates and 50 µl of transcriptase cocktail was added to each well. Cocktail is 50 mM Tris-HC1, pH 8.0, 20 mM DTT, 0.6 mM MnC1₂, 60 mM NaC1, 0.05% NP-40, 5 µg/ml dt (oligodeoxythymidilic acid), 10 µg/ml poly A (polyriboadenylic acid), 10 µM dTTP, 1 Ci/mm ³²P dTTP. Plates were then incubated for 60 minutes at 37°C. After incubation samples were spotted onto Whatman DEAE-81 paper, washed and analyzed by counting or direct autoradiography.
The ability of cyclodextrins to inhibit HIV infection was assessed in vitro utilizing reverse transcriptase assays as described Section 6.1.2, supra. HTLV-IIIb cell free virus stocks were inoculated onto target cells in the presence or absence of the synthetic compounds.

HIV-1 [2] = assay: Viral RNA analysis by dot blot; format: cell-based; settings: target cells infected in the presence of compound, 1 mM, 72 hours post-infection
Experimental: Virus particles were incubated with target cells in the presence or absence of […] of β-CD-14S. At 72 hours post infection, the cells were washed and dot blot assays were performed to determine the presence or absence of viral RNA production. In (A), target cells were infected in the presence of sulfated β-cyclodextrin (lane A), in the absence of cyclodextrins (lane B), or in the presence of unsubstituted β-cyclodextrin (lane C). 1/2 dilutions of cells are from left to right starting with 10⁶ cell/well utilized. In (B), virally infected cells (+) or uninfected cells (-) were assayed for their ability to produce viral RNA by dot blot analysis. CD = infected cells incubated with 1 mM of β-CD-14S. 1/2 dilutions of cells are from top to bottom starting with 10⁶ cell/well.
Virus treated cells were grown in tissue culture and harvested for assay at 72 hrs. post-infection. The cell concentrations were then adjusted to 1 x 10⁶ cells/m1 with phosphate buffered saline and spotted directly onto prewetted gene screen utilizing a dot blot apparatus. The filter was then fixed in 3% NaC1, 10 mM NaH₂PO₄, (pH 7.2) containing 1% gluteraldehyde at 4°C for 1 hr. The fixed blot was then rinsed three times with proteolytic buffer (50mM EDTA, 0.1 M Tris-HC1 (pH 8.0), 20 µg/ml proteinase K) for 30 minutes at 37°C. The filter was air dried until being probed. A Sall-Xho1 probe derived from the pIIIenv1 plasmid (a generous gift of Dr. J. Sodrofsky) and encoding the envelope region of the HXB2, HIV-1 virus was labeled by the random primer method using standard technology and hybridized to the filter as previously described (Weiner et al., 1986, Cell Immunol. 100:197).
To determine if the cyclodextrins were interfering with steps relevant to viral replication, the ability of these compounds to inhibit viral nucleic acid synthesis was determined. Virus particles were incubated with target cells in the presence or absence of 1 mM of β-CD-14S. At 72 hours post-infection, the cells were washed and dot blot assays were performed to determine the presence or absence of viral RNA production. […]

HIV-1 [3] = assay: HIV-1 induced syncytia assay, IIIb infected H9 cells cocultured with Supt-1 target cells; format: cell-based; settings: for number of syncytia formed: HIV-1, number and size of syncytia
Experimental: (§1) For the assay of HIV-1 fusion, Supt T1 cells were used as target cells. They fuse rapidly when cocultured with HIV-1 (H9/IIIb) producing cell lines. For the assay of HIV-2 mediated cell fusion, H9 cells were used as target cells. They fuse rapidly when cocultured with HIV-2 (CEMROD-2) producing cell lines. HIV infected cells were plated in 96 well plates (10⁴ cells/well in RPMI 1640 + 10% FCS) and incubated with or without dilution of compounds for 30 minutes at 37°C. Target cells are then added 5 x 10⁵/well and the number of syncytia are qualitatively determined after the incubation periods described in the text.
In a series of additional experiments, analysis of HIV-1 induced syncytia was performed by coculturing H9 cells infected with the IIIb isolate with uninfected Supt-1 (a human CD4+ T cell line) cells as targets. […]

HIV-2 = HIV-2 induced syncytia assay, ROD-2 infected cells cocultured with H9 target cells; format: cell-based; settings: HIV-2, number and size of syncytia
Experimental: as §1, with “text. […]” for “text.”

Water solubility at 0°C = format: physicochemical; settings: 0°C, H₂O
Experimental: The cyclic oligosaccharide derivatives useful in the present invention are highly hydrophilic and therefore very water soluble. A highly hydrophilic character probably is important to allow interaction with cellular surfaces. The hydrophilic activity is likely roughly indicated by the affinity to water, as measured by water solubility. It is important to measure the same at 0°C since at higher temperatures the most suitable derivative have solubilities so high that meaningful measurements are difficult.

In the case of OC[C@H]1O[C@@H]2O[C@H]3[C@H](O)[C@@H](O)[C@@H](O[C@H]4[C@H](O)[C@@H](O)[C@@H](O[C@H]5[C@H](O)[C@@H](O)[C@@H](O[C@H]6[C@H](O)[C@@H](O)[C@@H](O[C@H]7[C@H](O)[C@@H](O)[C@@H](O[C@H]8[C@H](O)[C@@H](O)[C@@H](O[C@H]1[C@H](O)[C@H]2O)O[C@@H]8CO)O[C@@H]7CO)O[C@@H]6CO)O[C@@H]5CO)O[C@@H]4CO)O[C@@H]3CO [Beta-CD, β-cyclodextrin, reference compound], the “inhibition of viral infectivity (reverse transcriptase activity)” value [1] is reported as “no inhibition of viral infectivity”, the “HIV-1 specific RNA” value (HIV-1 [2]) is reported as “substantial viral RNA was detected” and the “number of syncytia formed” value (HIV-1 [3]; 1.3 mM) is reported as 4 L. The “number of syncytia formed” value (HIV-1 [3]; 2.5 mM) was 4 L, the “number of syncytia formed” value (HIV-1 [3]; .01 mM) was 4 L and the “number of syncytia formed” value (HIV-1 [3]; .02 mM) was 4 L. The “number of syncytia formed” value (HIV-1 [3]; .04 mM) was 4 L, the “number of syncytia formed” value (HIV-1 [3]; .08 mM) was 4 L and the “number of syncytia formed” value (HIV-1 [3]; .16 mM) was 4 L. For the same compound, the “number of syncytia formed” value (HIV-1 [3]; .32 mM) was 4 L, the “number of syncytia formed” value (HIV-1 [3]; .63 mM) was 4 L and the “inhibiting syncytia formation of HIV-1” value (HIV-1 [3]; result in words) was “as ineffective as media alone”. For the same compound, the “number of syncytia formed” value (HIV-2; 1.3 mM) was 4 L, the “number of syncytia formed” value (HIV-2; 2.5 mM) was 4 L and the “number of syncytia formed” value (HIV-2; .01 mM) was 4 L. For the same compound, the “number of syncytia formed” value (HIV-2; .02 mM) was 4 L, the “number of syncytia formed” value (HIV-2; .04 mM) was 4 L and the “number of syncytia formed” value (HIV-2; .08 mM) was 4 L. The “number of syncytia formed” value (HIV-2; .16 mM) was 4 L, the “number of syncytia formed” value (HIV-2; .32 mM) was 4 L and the “number of syncytia formed” value (HIV-2; .63 mM) was 4 L. It also gave a solubility (Water solubility at 0°C) of 7000 µg/mL (≈ 6.17 mM).

— patent EP0423240B1, “MODULATION OF VIRUS-HOST CELL INTERACTIONS USING CYCLIC OLIGOSACCHARIDES” (THE TRUSTEES OF THE UNIVERSITY OF PENNSYLVANIA, priority 1988, dated 1990)
